Source: publication PMC9452538, “The antimicrobial peptide LI14 combats multidrug-resistant bacterial infections” (Communications Biology, 2022)
Converted amounts (≈) assume the structure as drawn. Where two headings read alike, the source gives them in different places. Peptide text beside a SMILES is read from it.

What was measured:
MRSA 1518 = assay: microbe, parasite or virus in culture; format: cell-based, Staphylococcus aureus; settings: 1518
In short: (§1)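 Bacteria are grown to exponential phase, diluted 1:1000 in MHB, then combined at 1.5 × 10^6 CFUs/mL with different peptide concentrations. MICs follow standard CLSI2021 broth micro-dilution.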

MRSA 1530 = assay: microbe, parasite or virus in culture; format: cell-based, Staphylococcus aureus; settings: 1530
In short: as §1

E. coli 1F28 (tet(X4)) = assay: microbe, parasite or virus in culture; format: cell-based, Escherichia coli; settings: 1F28 (tet(X4))
In short: as §1

E. coli B3-1 (tet(X4)) = assay: microbe, parasite or virus in culture; format: cell-based, Escherichia coli; settings: B3-1 (tet(X4))
In short: as §1

E. coli C3 (blaNDM-1) = assay: microbe, parasite or virus in culture; format: cell-based, Escherichia coli; settings: C3 (blaNDM-1)
In short: as §1

E. coli CP131 (mcr-3) = assay: microbe, parasite or virus in culture; format: cell-based, Escherichia coli; settings: CP131 (mcr-3)
In short: as §1

E. coli G6 (blaNDM-5) = assay: microbe, parasite or virus in culture; format: cell-based, Escherichia coli; settings: G6 (blaNDM-5)
In short: as §1

E. coli G92 (mcr-1) = assay: microbe, parasite or virus in culture; format: cell-based, Escherichia coli; settings: G92 (mcr-1)
In short: as §1

P. aeruginosa PA14 = assay: microbe, parasite or virus in culture; format: cell-based, Pseudomonas aeruginosa; settings: PA14
In short: as §1

[1] = system: K. pneumoniae ATCC 700603; assay: microbe, parasite or virus in culture; format: cell-based, Klebsiella pneumoniae; settings: ATCC 700603
In short: as §1

[2] = system: K. pneumoniae D120 (mcr-8); assay: microbe, parasite or virus in culture; format: cell-based, Klebsiella pneumoniae; settings: D120 (mcr-8)
In short: as §1

[3] = system: P. cibarius HNCF44W (blaNDM-1 + tet(X6)); assay: organism not typed; format: cell-based
In short: as §1

E. coli B2 [4] = format: cell-based, Escherichia coli; settings: E. coli B2
Procedure: MRSA T144 and E. coli B2 in the exponential growth phase were incubated with LI14 peptide supplemented with 10 mM Na^+, K^+, Mg^2+, 10% Dulbecco’s modified Eagle medium (DMEM), and 10% fetal bovine serum (FBS) for 16–18 h. The stability of LI14 was evaluated by the change of its antibacterial activity under different conditions.
LI14 were preincubated for 1 h at various temperatures (40–121 °C), pH (2–12), and proteases (pepsin, trypsin, and papain, final concentration 1 mg/mL). […] Following the incubation with the proteases, the leftover protease was precipitated with acetonitrile and removed by centrifugation at 3000 × g, followed by a MIC test.
Supplementary Table 4 Thermal, pH, salts and protease stability of AMPs against
MRSA T144 and E. coli B2 (MIC, μg/mL).
Treatment MRSA T144 E. coli B2

E. coli ATCC 25922 = assay: Resistance development study, serial passages; format: cell-based, Escherichia coli; settings: 80 serial passages at sub-inhibitory concentration (0.5-fold MIC)
Procedure: The ability of LI14 peptide to induce resistance was studied as previously described. Resistance to the therapeutically important drugs rifampicin and ciprofloxacin was measured using S. aureus ATCC 29213 and E. coli ATCC 25922 as test strains. The middle and final MICs were monitored after eighty such serial passages exposed to the tested medicines (0.5-fold MIC), and the fold change in MIC increase was recorded.

E. coli B2 persisters = assay: Bactericidal activity against persisters; format: cell-based, Escherichia coli
Procedure: Briefly, the bacteria suspensions after washing were exposed to 50-fold MIC concentrations of vancomycin and tigecycline, respectively, and co-incubation for 4 h to obtain persister cells. […] Subsequently, the primary CFUs/mL were calculated.

CD-1 mice = format: in vivo; settings: 10 mg/kg i.p. daily for 6 days, n = 4
Procedure: LI14 (10 mg/kg, body weight) was intra-peritoneally injected into CD-1 mice (n = 4 biologically independent animals per group) every day for 6 days[64]. Mice were weighed daily and the behaviors of the mice were inspected for one week. Blood from mice was collected on the seventh day for whole-blood cell analysis and kidney chemistry profile. At the same time, the heart, liver, spleen, lung, and kidney of mice were collected for H.E. staining.
Supplementary Fig. 5 In vivo toxicity assessment of LI14 peptide.
(a) Scheme of the LI14 peptide toxicity study in mice. CD-1 female mice (n = 4 biologically independent animals per group) were intraperitoneally administered with LI14 (10 mg/kg) daily […]. (b-e) Body weight (b), whole-blood cell profiles (c), serum biochemical […]
(1 picture or pasted object on this page, not shown here)

E. coli B2 [5] = assay: Galleria mellonella infection model; format: in vivo; settings: E. coli B2 infected G. mellonella; 50 mg/kg of LI14 at 1 h after infection; 7 days; n = 8
Procedure: (§2) Galleria mellonella larvae (supplied by Huiyude Biotech Company, Tianjin, China) were separated into six groups (n = 8 biologically independent animals per group) and infection models by injecting MRSA T144 and E. coli B2 cultures, respectively (10 µL, 1.0 × 10^5 CFUs per larvae) into the right posterior gastropoda[42],[48]. The infected larvae were treated by giving LI14 peptide (10, 20, 50 mg/kg), ampicillin/rifampicin (10 mg/kg) or a mixture of LI14 with ampicillin/rifampicin (10 + 10 mg/kg) in the left posterior gastropoda after 1 h infection, with the PBS injection group serving as a control treatment. Within 7 days, survival rates of Galleria mellonella larvae were inspected and recorded.

MRSA T144 = assay: Galleria mellonella infection model; format: in vivo; settings: MRSA T144 infected G. mellonella; 50 mg/kg of LI14 at 1 h after infection; 7 days; n = 8
Procedure: as §2

With `CC[C@H](C)[C@H](NC(=O)[C@H](CCCNC(=N)N)NC(=O)[C@H](CS)NC(=O)[C@H](CC(C)C)NC(=O)[C@H](CCCCN)NC(=O)[C@H](CCCCN)NC(=O)[C@H](CC(C)C)NC(=O)[C@@H](NC(=O)[C@H](CCCNC(=N)N)NC(=O)[C@H](CS)NC(=O)[C@H](CC(C)C)NC(=O)[C@H](CCCCN)NC(=O)[C@H](CCCCN)NC(=O)[C@@H](N)CC(C)C)[C@@H](C)CC)C(N)=O` [LI14] (H-LKKLCRILKKLCRI-NH2) the MIC (MRSA 1518) was 64 µg/mL (≈ 37.1 µM), the MIC (MRSA 1530) was 64 µg/mL (≈ 37.1 µM) and the MIC (E. coli 1F28 (tet(X4))) was 8 µg/mL (≈ 4.63 µM). For the same compound, the MIC (E. coli B3-1 (tet(X4))) was 8 µg/mL (≈ 4.63 µM), the MIC (E. coli C3 (blaNDM-1)) was 4 µg/mL (≈ 2.32 µM) and the MIC (E. coli CP131 (mcr-3)) was 4 µg/mL (≈ 2.32 µM). It also gave an MIC (E. coli G6 (blaNDM-5)) of 4 µg/mL (≈ 2.32 µM), an MIC (E. coli G92 (mcr-1)) of 8 µg/mL (≈ 4.63 µM) and an MIC (P. aeruginosa PA14) of 16 µg/mL (≈ 9.26 µM). For the same compound, the MIC [1] was 32 µg/mL (≈ 18.5 µM), the MIC [2] was 32 µg/mL (≈ 18.5 µM) and the MIC [3] was 8 µg/mL (≈ 4.63 µM). It also gave an MIC (E. coli B2 [4]; Control) of 4 µg/mL (≈ 2.32 µM), an MIC (E. coli B2 [4]; KCl 10 mM) of 4 µg/mL (≈ 2.32 µM) and an MIC (E. coli B2 [4]; NaCl 10 mM) of 4 µg/mL (≈ 2.32 µM). For the same compound, the MIC (E. coli B2 [4]; Serum (10%), fetal bovine serum) was 4 µg/mL (≈ 2.32 µM), the MIC (E. coli B2 [4]; peptide preincubated 1 h at 40℃) was 4 µg/mL (≈ 2.32 µM) and the MIC (E. coli B2 [4]; peptide preincubated 1 h at 60℃) was 4 µg/mL (≈ 2.32 µM). The MIC (E. coli B2 [4]; peptide preincubated 1 h at 80℃) was 4 µg/mL (≈ 2.32 µM), the MIC (E. coli B2 [4]; peptide preincubated 1 h at 121℃) was 4 µg/mL (≈ 2.32 µM) and the MIC (E. coli B2 [4]; peptide preincubated 1 h at pH 2, readjusted to pH 7.2) was 4 µg/mL (≈ 2.32 µM). For the same compound, the MIC (E. coli B2 [4]; peptide preincubated 1 h at pH 4, readjusted to pH 7.2) was 4 µg/mL (≈ 2.32 µM), the MIC (E. coli B2 [4]; peptide preincubated 1 h at pH 6, readjusted to pH 7.2) was 4 µg/mL (≈ 2.32 µM) and the MIC (E. coli B2 [4]; peptide preincubated 1 h at pH 8, readjusted to pH 7.2) was 4 µg/mL (≈ 2.32 µM). The MIC (E. coli B2 [4]; peptide preincubated 1 h at pH 10, readjusted to pH 7.2) was 4 µg/mL (≈ 2.32 µM), the MIC (E. coli B2 [4]; peptide preincubated 1 h at pH 12, readjusted to pH 7.2) was 4 µg/mL (≈ 2.32 µM) and the “Increase in MIC after serial passages” value (E. coli ATCC 25922) was 8 fold. The “Removal rate of persisters” value (E. coli B2 persisters; 128 μg/mL of LI14) was “more than 99%”, the “Clearance rate against persisters” value (E. coli B2 persisters; within 2 h) was “above 99%” and the “Behavior and body weight” value (CD-1 mice) was “did not observe murine behavior changes or body weight loss”. For the same compound, the “H.E. staining of heart, liver, spleen, lung, kidney” value (CD-1 mice) was “no significant difference in histological morphology”, the “Whole-blood cell profiles and serum biochemical index” value (CD-1 mice) was “no significant difference compared with the control group” and the “Survival rate of larvae” value (E. coli B2 [5]) was 75%. For the same compound, the “Survival rate of larvae” value (MRSA T144) was 100%.
